Source: paper PMC8717366, “Synthesis and Pharmacological Characterization of Visabron, a Backbone Cyclic Peptide Dual Antagonist of α4β1 (VLA-4)/α9β1 Integrin for Therapy of Multiple Sclerosis” (JACS Au, 2021)
Read-outs that look alike come from different tables or passages of the source. Numbered stars: 1 amine (or outer) side, 2 acyl side, 3 side chain; on linkers, the order of the positions; unused ones are H or OH. Bridge positions count the residues as written; N and C are the ends. Square brackets hold non-standard residues; d marks the D form. Peptide text beside a SMILES is read from it. CO = O=C([*:1])[*:2]; Nlys = NCCCCNCC(=O)O

Columns and labels:
[1] = Pharmacokinetics in rats after single i.v. dose; assay type: in vivo, Male Wistar rats
Procedure: Pharmacokinetics of Visabron c (4-4) following iv injection:
Animals-Male Wistar rats (275−300 g, purchased from Harlan, Israel), were used for the surgical procedure. An indwelling cannula was implanted into the right jugular vein, and exteriotrated at the dorsal neck to enable serial systemic blood sampling. After completion of the surgical procedure, the animals were transferred to cages to recover overnight (12−18 h). The animals had free access to water and food during the recovery period and throughout the entire experiment. All surgical and experimental procedures were approved by the Animal Experimental Ethics Committee of the Hebrew University, Hadassah Medical School, Jerusalem. […]
PK Study-A single dose of Visabron c(4-4) in sterile water (300 μL of a 0.514 mg/mL solution, which was equivalent to a final dose of 0.514 mg/kg) was administered i.v. via the indwelling jugular cannula to each rat. Following dose administration, blood samples were taken at pre -dose, 10, 15, 30, 60, 90 and 130-min from the onset of the drug administration (time zero) via the right jugular vein. Approximately […]
350 μL of whole blood was removed, and placed in sodium-heparin containing tubes, and immediately placed in wet ice. Blood was centrifuged at 5322 g for 10 min and a 150 μL aliquot of plasma was transferred to fresh centrifuge tubes and stored at −20 °C pending analysis. PK analysis was performed using standard non-compartmental analysis models in Phoenix WinNonlin®.
Bioanalytical Method for the Detection of Vis-c(4-4) in Rat Plasma: Plasma samples (150 μL) were spiked with metoprolol (20 μL, 10 μg/mL) as an internal standard. 200 μL of ACN was added to each sample and vortex-mixed for 1 min. The samples were then centrifuged (14635 g, 10 min), and the supernatant was transferred to fresh glass tubes and evaporated to dryness (Vacuum Evaporation System, Labconco, Kansas City, MO, USA). The glass tubes were reconstituted in 80 μL of mobile phase and centrifuged a second time (14635 g, 10 min). The amount of the compounds was determined using an HPLC−MS Waters 2695 Separation Module, equipped with a Micromass ZQ detector. The resulting solution was injected (10 μL) into the HPLC sy stem. The system was conditioned as follows :
Xterra MS C18, 3.5 µm, 100A, 100 x 2.1 mm column (Waters), an isocratic mobile phase of ACN : water supplemented with 0.1% formic acid (15:85, v/v) and a flow rate of 0.2 mL/ min at 35 °C was used. The limit of quantification the peptide was 25 ng/mL. Calibration curve was prepared by spiking the standard working stock solution with 15 μL of the different concentrations, 20 μL IS (10 μg/ mL) and 135 μl blank rat plasma in a centrifuge tube on the analysis day . […]
range of 25 ng/Ml to 2.5 μg/mL.
Blood cell counting and biochemistry analyzes : Male C57BL/6 mice were injected intravenously with 0.2 ml of peptide in a dose of 500 mg/kg. No immediate toxicity symptoms were measured a nd thereafter, acute tolerability was observed. Since the hematopoietic system is one of the most sensitive parameters to assess the toxicity of drugs in humans and animals, tail vein blood samples were taken from control (n=3) and 250 mg/kg Visabron c (4-4) injected mice (n=5), after 24 hours from injection and submitted for hematocrit cell counting and biochemical analysis. […]
blood count and electrolytes of special importance are normal liver (ALP, alkaline phosphatase; ALT, alanine transaminase and AST, aspartate transaminase) functions and normal kidney (creatinine and blood urea nitrogen) functions, indicating sufficient organ integrity at the end of the experimental period. The data obtained was similar to hematological parameters reported for this mice strain5, and clearly indicates lack of differences on kidney and liver parameters between the two mice groups.
Visabron c (4-4) safety by in vitro evaluation using PhosphoSens - CSox based kinase assays:
A powerful method was used to measure the activity of recombinant protein kinases using a […]

[2] = human, in vivo; cited from earlier work

| Compound | half-life ([1]; rat, in vivo, iv, 0.515 mg/kg, single i.v. dose 0.515 mg/kg, n = 4) | AUC ([1]; rat, in vivo, iv, plasma, single i.v. dose 0.515 mg/kg, n = 4) | Vd ([1]; rat, in vivo, iv, read-out: volume of distribution) | Vd ([1]; rat, in vivo, iv, single i.v. dose 0.515 mg/kg, n = 4, Table 3, read-out: Vd) | clearance ([1]; rat, in vivo, iv, single i.v. dose 0.515 mg/kg, n = 4, noncompartmental analysis) | t1/2 ([1]; single i.v. dose 0.515 mg/kg, n = 4, 0.515 mg/kg) | Multiple sclerosis patients with anti-natalizumab-neutralizing antibodies [2] | Patients with neutralizing antibodies toward natalizumab that cause loss of drug efficacy [2] |
| --- | --- | --- | --- | --- | --- | --- | --- | --- |
| CSCC[C@@H]1NC(=O)[C@H]([C@@H](C)O)NC(=O)CN(C(=O)[C@@H](N)CCCCN)CCCCNC(=O)NCCCCN(CC(=O)N[C@@H](CC(C)C)C(N)=O)C(=O)[C@H](CC(=O)O)NC(=O)[C@H](CC(C)C)NC1=O [visabron c (4–4)] (H-K[Nlys]TMLD[Nlys]L-NH2; linker 2-7 via CO) | 24 min | 777 ng·h/mL | 0.39 L/kg | 0.381 ± 0.029 L/kg | 11.1 ± 0.5 mL/min/kg | 23.8 ± 1.6 min |  |  |
| natalizumab: clinical-grade monoclonal antibody anti-α4β1 produced by Biogen Co. [reference compound] |  |  |  |  |  |  | 6–9% | about 6% |
